Drawing on patent US20240307415A1, “STEROID COMPOUND, AND PHARMACEUTICAL COMPOSITION THEREOF AND USE THEREOF” (JIANGSU SIMCERE PHARMACEUTICAL CO., LTD., priority 2021, published 2024), this text covers EC50 for ten compounds.

Where two headings read alike, the source gives them in different places.

One assay deals with K562-GRE reporter gene. In words: K562-GRE reporter gene activity. It is filed as cell-based. The note with it: read-out: K562-GRE Reporter EC50. Here is the method:
To generate the parental K562-GRE cell line, K562 cells were seeded at 5×10^5 cells/well onto a 6-well plate (brand: Costar, Cat. No: 3516) containing 2 mL of complete medium (RPM1640, 10% FBS, penicillin-streptomycin) and cultured at 37° C. with 5% CO2 for 24 h. The next day, 3 μg of pNL2.2[NLucP/MMTV/Hygro-NANO] (Promega) and 3 μL of PLUS reagent (brand: Invitrogen, Cat. No: 11514-015) were diluted in 150 μL of Opti-MEM (brand: Gibco, Cat. No: 11058021) and incubated at room temperature for 5 min. The pNL2.2[NLucP/MMTV/Hygro-NANO] vector contains MMTV LTR (mouse mammary tumor virus long terminal repeat), which drives transcription of the luciferase reporter gene NanoLuc in response to activation of several nuclear receptors (e.g. glucocorticoid receptor and androgen receptor). After incubation, the diluted DNA solution was mixed with Lipofectamine LTX solution (brand: Invitrogen, Cat. No: 15338-100) (6 μL of Lipofectamine LTX+144 μL of Opti-MEM) in a 1:1 ratio, pre-incubated, and incubated at room temperature for 15 min to form a DNA-Lipofectamine LTX complex. After incubation, 300 μL of the DNA-Lipofectamine complex was added directly to the cell wells. The K562 cells were transfected at 37° C. with 5% CO2 for 24 h. After transfection, the cells were washed with 3 mL of PBS and selectively grown for two weeks with complete growth medium containing 125 μg/mL hygromycin B (brand: Invitrogen, Cat. No: 10687010). “K562-GRE (pNL2.2[NLucP/MMTV/Hygro-NANO])” cells were generated.
After mixing, the cells were cultured in an incubator at 37° C. for 24 h. After 24 h of incubation, an equal volume of 100 μL of Nano-Glo luciferase assay system (brand: Promega, Cat. No: N1120) was added to the cells, the mixture was reacted in a shaker at […] for 10 min, and the chemiluminescence values were detected using the PHERAstar instrument. The antibody binding curves were plotted using the logarithmic value of the antibody concentration as the abscissa and the corresponding chemiluminescence reading as the ordinate, and the EC50 value was calculated by four-parameter fitting (GraphPad Prism9).
(In a reporter assay the amount or activity of a reporter protein is the signal.)

The target of assay [1] is Glucocorticoid Receptor GR (Homo sapiens (Human), UniProt P04150). In words: Binding activity to glucocorticoid receptor GR (Polarscreen fluorescence polarization kit). The note with it: GR full length, 2 h. Here is the method:
The binding activity of the compound to GR was determined using the Polarscreen Glucocorticoid Receptor Assay Kit, Red (brand: Thermo, Cat. No: A15898). […] The highest concentration was 100 μM, 8 concentrations in total. […] With the log value of the final concentration of the compound as the X axis and the mP value as the Y axis, data was input into the processing software Graphpad Prism 9, and the EC50 value was calculated by four-parameter fitting

Setting [2] is: K562-GRE cells, 24 h incubation, NanoLuc luciferase.

Sequence of Glucocorticoid Receptor GR (P04150 whole entry): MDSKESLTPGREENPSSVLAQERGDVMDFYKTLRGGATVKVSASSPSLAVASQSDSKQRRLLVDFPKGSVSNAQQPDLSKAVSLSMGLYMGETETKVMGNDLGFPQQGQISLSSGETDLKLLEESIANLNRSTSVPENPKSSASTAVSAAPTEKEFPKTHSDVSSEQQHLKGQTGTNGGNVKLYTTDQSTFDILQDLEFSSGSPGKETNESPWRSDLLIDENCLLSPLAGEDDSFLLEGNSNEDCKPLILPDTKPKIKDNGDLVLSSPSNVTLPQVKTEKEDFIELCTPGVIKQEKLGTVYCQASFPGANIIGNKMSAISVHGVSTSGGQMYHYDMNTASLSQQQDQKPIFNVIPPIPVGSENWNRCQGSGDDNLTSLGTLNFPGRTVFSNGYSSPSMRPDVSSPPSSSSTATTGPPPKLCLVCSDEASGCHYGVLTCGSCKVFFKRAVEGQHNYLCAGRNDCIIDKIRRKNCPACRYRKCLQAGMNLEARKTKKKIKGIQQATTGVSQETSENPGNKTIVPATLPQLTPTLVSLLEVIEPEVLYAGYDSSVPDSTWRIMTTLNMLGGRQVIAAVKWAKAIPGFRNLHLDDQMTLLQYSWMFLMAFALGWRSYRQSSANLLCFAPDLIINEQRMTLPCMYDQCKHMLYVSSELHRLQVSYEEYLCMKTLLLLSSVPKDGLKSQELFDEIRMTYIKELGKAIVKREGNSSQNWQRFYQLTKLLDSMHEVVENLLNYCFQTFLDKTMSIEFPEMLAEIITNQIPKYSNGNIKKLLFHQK

What is called EC50 is the concentration that produces a half-maximal response. `C[C@]12C=CC(=O)C=C1CC[C@@H]1[C@@H]2[C@@H](O)C[C@@]2(C)[C@H]1C[C@H]1O[C@@H](c3ccc(Cc4ccc(N)c5ncoc45)cc3)O[C@]12C(=O)CO` [Compound 007, (6aR,6bS,7S,8aS,8bS,10R,11aR,12aS,12bS)-10-(4-((4-aminobenzo[d]oxazol-7-yl)methyl)phenyl)-7-hydroxy-8b-(2-hydroxyacetyl)-6a,8a-dimethyl-6a,6b,7,8,8a,8b,11a,12,12a,12b-decahydro-1H-naphtho[2′,1′:4,5]indeno[1,2d][1,3]dioxolan-4(2H)-one]: the EC50 in the assay with K562-GRE reporter gene (24 h) was 2.1 nM; in assay [1] it was 17.1 nM.

As for `C[C@]12C=CC(=O)C=C1CC[C@@H]1[C@@H]2[C@@H](O)C[C@@]2(C)[C@H]1C[C@H]1O[C@@H](c3ccc(Cc4ccc5nc[nH]c5c4)cc3)O[C@]12C(=O)CO` [Compound 002, (6aR,6bS,7S,8aS,8bS,10R,11aR,12aS,12bS)-10-(4-((1H-benzo[d]imidazol-6-yl)methyl)phenyl)-7-hydroxy-8b-(2-hydroxyacetyl)-6a,8a-dimethyl-6a,6b,7,8,8a,8b,11a,12,12a,12b-decahydro-1H-naphtho[2′,1′:4,5]indeno[1,2-d][1,3]dioxolan-4(2H)-one], in the assay with K562-GRE reporter gene (setting [2]), the EC50 was determined as 9 nM.

On to `C[C@]12C=CC(=O)C=C1CC[C@@H]1[C@@H]2[C@@H](O)C[C@@]2(C)[C@H]1C[C@H]1O[C@@H](c3ccc(Cc4ccc5c(c4)OCCN5)cc3)O[C@]12C(=O)CO` [Compound 005, (6aR,6bS,7S,8aS,8bS,10R,11aR,12aS,12bS)-10-(4-((3,4-dihydro-2H-benzo[b][1,4]oxazin-7-yl)methyl)phenyl)-7-hydroxy-8b-(2-hydroxyacetyl)-6a,8a-dimethyl-1,2,6a,6b,7,8,8a,8b,11a,12,12a,12b-decahydro-1H-naphtho[2′,1′:4,5]indeno[1,2-d][1,3]dioxolan-4(2H)-one], for which, in the assay with K562-GRE reporter gene (setting [2]), the EC50 stood at 5.6 nM.

For the compound `C[C@]12C=CC(=O)C=C1CC[C@@H]1[C@@H]2[C@@H](O)C[C@@]2(C)[C@H]1C[C@H]1O[C@@H](c3ccc(Cc4ccc(N)c5c4OCO5)cc3)O[C@]12C(=O)CO` [Compound 008, (6aR,6bS,7S,8aS,8bS,10R,11 aR,12aS,12bS)-10-(4-((7-aminobenzo[d][1,3]dioxolan-4-yl)methyl)phenyl)-7-hydroxy-8b-(2-hydroxyacetyl)-6a,8a-dimethyl-6a,6b,7,8,8a,8b,11a,12,12a,12b-decahydro-1H-naphtho[2′,1′:4,5]indeno[1,2-d][1,3]dioxolan-4(2H)-one], the EC50 in the assay on K562-GRE reporter gene (setting [2]) was found to be 7.81 nM.

Regarding `CC12C=CC(=O)C=C1CCC1C2C(O)CC2(C)C1CC1OC(c3ccc(Cc4cc(N)cc5c4CCO5)cc3)OC12C(=O)CO` [Compound 012, (6aR,6bS,7S,8aS,8bS,10R,11aR,12aS,12bS)-10-(4-((6-amino-2,3-dihydrobenzofuran-4-yl)methyl)phenyl)-7-hydroxy-8b-(2-hydroxyacetyl)-6a,8a-dimethyl-6a,6b,7,8,8a,8b,11a,12,12a,12b-decahydro-1H-naphtho[2′,1′:4,5]indeno[1,2-d][1,3]dioxolan-4(2H)-one], the EC50 in the assay with K562-GRE reporter gene (setting [2]) was determined as 9.58 nM.

With `C[C@]12C=CC(=O)C=C1[C@@H](F)C[C@H]1[C@@H]3C[C@H]4O[C@@H](c5ccc(Cc6ccc7c(c6)OCCN7)cc5)O[C@@]4(C(=O)CO)[C@@]3(C)C[C@H](O)[C@@]12F` [Compound 006, (2S,6aS,6bR,7S,8aS,8bS,10R,11aR,12aS,12bS)-10-(4-((3,4-dihydro-2H-benzo[b][1,4]oxazin-7-yl)methyl)phenyl)-2,6b-difluoro-7-hydroxy-8b-(2-hydroxyacetyl)-6a,8a-dimethyl-6a,6b,7,8,8a,8b,11a,12,12a,12b-decahydro-1H-naphtho[2′,1′:4,5]indeno[1,2-d][1,3]dioxolan-4(2H)-one], the EC50 in the assay with K562-GRE reporter gene (24 h) was 1.7 nM.

As for `C[C@]12C=CC(=O)C=C1[C@@H](F)C[C@H]1[C@@H]3C[C@H]4O[C@@H](c5ccc(Cc6ccc(N)c7c6CCO7)cc5)O[C@@]4(C(=O)CO)[C@@]3(C)C[C@H](O)[C@@]12F` [Compound 010, (2S,6aS,6bR,7S,8aS,8bS,10R,11aR,12aS,12bS)-10-(4-((7-amino-2,3-dihydrobenzofuran-4-yl)methyl)phenyl)-2,6b-difluoro-7-hydroxy-8b-(2-hydroxyacetyl)-6a,8a-dimethyl-6a,6b,7,8,8a,8b,11a,12,12a,12b-decahydro-1H-naphtho[2′,1′:4,5]indeno[1,2-d][1,3]dioxolan-4(2H)-one], the EC50 with K562-GRE reporter gene (24 h) stood at 1.07 nM.

Regarding `C[C@]12C=CC(=O)C=C1CC[C@@H]1[C@@H]2[C@@H](O)C[C@@]2(C)[C@H]1C[C@H]1O[C@@H](c3ccc(Cc4ccc5c(c4)NCC5)cc3)O[C@]12C(=O)CO` [Compound 004, (6aR,6bS,7S,8aS,8bS,10R,11aR,12aS,12bS)-7-hydroxy-8b-(2-hydroxyacetyl)-10-(4-(indolin-6-ylmethyl)phenyl)-6a,8a-dimethyl-6a,6b,7,8,8a,8b,11a,12,12a,12b-decahydro-1H-naphtho[2′,1′:4,5]indeno[1,2-d][1,3]dioxolan-4(2H)-one], the figures for the EC50 (with K562-GRE reporter gene (24 h); in assay [1]) were 7.5 nM and 42.5 nM, respectively.

Take `C[C@]12C=CC(=O)C=C1CC[C@@H]1[C@@H]2[C@@H](O)C[C@@]2(C)[C@H]1C[C@H]1O[C@@H](c3ccc(Cc4ccc(N)c5c4CCC5)cc3)O[C@]12C(=O)CO` [Compound 011, (6aR,6bS,7S,8aS,8bS,10R,11aR,12aS,12bS)-10-(4-((7-amino-2,3-dihydro-1H-inden-4-yl)methyl)phenyl)-7-hydroxy-8b-(2-hydroxyacetyl)-6a,8a-dimethyl-6a,6b,7,8,8a,8b,11a,12,12a,12b-decahydro-1H-naphtho[2′,1′:4,5]indeno[1,2-d][1,3]dioxolan-4(2H)-one]: the EC50 with K562-GRE reporter gene (setting [2]) amounted to 4.25 nM.

For the compound `C[C@]12C=CC(=O)C=C1CC[C@@H]1[C@@H]2[C@@H](O)C[C@@]2(C)[C@H]1C[C@H]1O[C@@H](c3ccc(Cc4ccc5cc[nH]c5c4)cc3)O[C@]12C(=O)CO` [Compound 003, (6aR,6bS,7S,8aS,8bS,10R,11aR,12aS,12bS)-10-(4-((1H-indol-6-yl)methyl)phenyl)-7-hydroxy-8b-(2-hydroxyacetyl)-6a,8a-dimethyl-6a,6b,7,8,8a,8b,11a,12,12a,12b-decahydro-1H-naphtho[2′,1′:4,5]indeno[1,2-d][1,3]dioxolan-4(2H)-one], in the assay with K562-GRE reporter gene (setting [2]), the EC50 amounted to 3.8 nM.
